Several values for one entry are separate records, joined by “and”; a condition that tells them apart may be missing. Equal values may be shown once. Inconclusive results and toxic doses are left out. Residues, ends and D or L forms follow the SMILES beside them. *: point of attachment. Cbz = O=C(OCc1ccccc1)*; Bn = c1ccc(C*)cc1; βAla = NCCC(=O)O

Here are results for 19 compounds from PubChem BioAssay AID256 (DTP/NCI, 2004).

This assay deals with CD2F1 mice, L1210 leukemia ip, survival T/C. Nature of the assay: NCI In Vivo Anticancer Drug Screen. Data for tumor model L1210 Leukemia (intraperitoneal) in CD2F1 (CDF1) mice. The conditions noted are these: higher = longer survival. The method in brief:
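Compound-dosed mice with transplantable tumor versus matched vehicle controls; endpoint ratio T/C reported.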

The mark [1] stands for this setting: endpoint: mean survival time, dose: 100.0 mg/kg/injection, schedule: Q04DX003 (ip), vehicle: saline with Tween-80.
Where [2] appears, read: endpoint: mean survival time, dose: 200.0 mg/kg/injection, schedule: Q04DX003 (ip), vehicle: saline with Tween-80.
The mark [3] stands for this setting: endpoint: mean survival time, dose: 100.0 mg/kg/injection, schedule: Q01DX009 (ip), vehicle: saline with Tween-80.
Setting [4] is: endpoint: mean survival time, dose: 200.0 mg/kg/injection, schedule: Q01DX009 (ip), vehicle: saline with Tween-80.
Where [5] appears, read: endpoint: mean survival time, dose: 400.0 mg/kg/injection, schedule: Q01DX009 (ip), vehicle: saline with Tween-80.
Setting [6] is: endpoint: mean survival time, dose: 400.0 mg/kg/injection, schedule: Q04DX003 (ip), vehicle: saline with Tween-80.

Take `FC(F)(F)c1cccc(C(OCCN2CCCC2)c2ccccc2)c1` (centres undefined): the T/C reads like this: (endpoint: mean survival time, dose: 6.25 mg/kg/injection, schedule: Q01DX009 (ip), vehicle: saline) 105 % of control; (endpoint: mean survival time, dose: 12.5 mg/kg/injection, schedule: Q01DX009 (ip), vehicle: saline) 105 % of control; (endpoint: mean survival time, dose: 25.0 mg/kg/injection, schedule: Q01DX009 (ip), vehicle: saline) 109 % of control.

Consider `COc1cc(N(C)C)ccc1/C=C\c1ccnc2ccccc12`, for which the T/C was 96 % of control (endpoint: mean survival time, dose: 50.0 mg/kg/injection, schedule: Q01DX001 (ip), vehicle: saline with Tween-80); 95 % of control (endpoint: mean survival time, dose: 100.0 mg/kg/injection, schedule: Q01DX001 (ip), vehicle: saline with Tween-80); 95 % of control (endpoint: mean survival time, dose: 200.0 mg/kg/injection, schedule: Q01DX001 (ip), vehicle: saline with Tween-80); 93 % of control (endpoint: mean survival time, dose: 400.0 mg/kg/injection, schedule: Q01DX001 (ip), vehicle: saline with Tween-80).

Consider `[N-]=[N+]=Nc1ccccc1C(=O)NCc1cnc(N)nc1N`, for which the T/C is, setting by setting: under setting [1], 95 % of control; under setting [2], 95 % of control.

In the case of `COC(=O)C(CSCc1ccccc1)NC(=O)C(CSCc1ccccc1)NC(=O)CCNC(=O)OCc1ccccc1` (centres undefined) ({Cbz-βAla}-Cys(Bn)-Cys(Bn)-OMe; configuration not given here), the T/C was 103 % of control (endpoint: mean survival time, dose: 25.0 mg/kg/injection, schedule: Q01DX005 (ip), vehicle: water); 98 % of control (endpoint: mean survival time, dose: 50.0 mg/kg/injection, schedule: Q01DX005 (ip), vehicle: water); 106 % of control (endpoint: mean survival time, dose: 100.0 mg/kg/injection, schedule: Q01DX005 (ip), vehicle: water); 103 % of control (endpoint: mean survival time, dose: 200.0 mg/kg/injection, schedule: Q01DX005 (ip), vehicle: water); 105 % of control (endpoint: mean survival time, dose: 400.0 mg/kg/injection, schedule: Q01DX005 (ip), vehicle: water).

In the case of `COC1OC(CN=[N+]=[N-])C(N=[N+]=[N-])C(OS(C)(=O)=O)C1OS(C)(=O)=O` (centres undefined), the T/C is 95 % of control under setting [3], 95 % of control under setting [4] and 90 % of control under setting [5].

For the compound `COc1cc2c(c(OC)c1OC)-c1ccc(SC)c(=O)cc1[C@@H](NC(=O)CCl)CC2`, the T/C by setting is: (endpoint: mean survival time, dose: 0.05 mg/kg/injection, schedule: Q01DX009 (ip), vehicle: water) 108 % of control; (endpoint: mean survival time, dose: 0.1 mg/kg/injection, schedule: Q01DX009 (ip), vehicle: water) 106 % of control; (endpoint: mean survival time, dose: 0.2 mg/kg/injection, schedule: Q01DX009 (ip), vehicle: water) 115 % of control; (endpoint: mean survival time, dose: 0.4 mg/kg/injection, schedule: Q01DX009 (ip), vehicle: water) 108 % of control and 111 % of control; (endpoint: mean survival time, dose: 0.8 mg/kg/injection, schedule: Q01DX009 (ip), vehicle: water) 120 % of control and 108 % of control.

Consider `O=S(=O)(O)c1ccc(O)cc1`, for which the T/C (endpoint: mean survival time, dose: 100.0 mg/kg/injection, schedule: Q01DX001 (ip), vehicle: saline) is 103 % of control; the T/C (endpoint: mean survival time, dose: 200.0 mg/kg/injection, schedule: Q01DX001 (ip), vehicle: saline) is 108 % of control; the T/C (endpoint: mean survival time, dose: 400.0 mg/kg/injection, schedule: Q01DX001 (ip), vehicle: saline) was 100 % of control.

As to `CCCCCCCCCCCC1=NC(CO)(CO)CO1`, the T/C under setting [3] was 96 % of control, the T/C under setting [4] is 90 % of control and the T/C under setting [5] was 93 % of control.

`CC(Br)C(=O)NC(CC(N)=O)C(=O)O` (centres undefined): the T/C under setting [1] is 102 % of control and the T/C under setting [2] was 98 % of control.

As for `CCC/C=C/C=C/C(=O)OC1/C(=C/C(=O)OC)CC2CC(C(C)O)OC(=O)CC(O)CC3CC(OC(C)=O)C(C)(C)C(O)(CC4C/C(=C/C(=O)OC)CC(/C=C/C(C)(C)C1(O)O2)O4)O3` (centres undefined), the T/C by setting is: (endpoint: median survival time, dose: 18.75 micrograms/kg/injection, schedule: Q01DX009 (ip), vehicle: saline + alcohol) 113 % of control and 117 % of control; (endpoint: median survival time, dose: 37.5 micrograms/kg/injection, schedule: Q01DX009 (ip), vehicle: saline + alcohol) 124 % of control; (endpoint: median survival time, dose: 150.0 micrograms/kg/injection, schedule: Q01DX009 (ip), vehicle: saline + alcohol) 151 % of control.

As for `COc1ccc2c(c1)CCc1cnn(C3OC(COC(C)=O)C(OC(C)=O)C(OC(C)=O)C3OC(C)=O)c1-2` (centres undefined), the T/C is, setting by setting: (endpoint: mean survival time, dose: 12.5 mg/kg/injection, schedule: Q01DX005 (ip), vehicle: other) 92 % of control; (endpoint: mean survival time, dose: 25.0 mg/kg/injection, schedule: Q01DX005 (ip), vehicle: other) 90 % of control; (endpoint: mean survival time, dose: 50.0 mg/kg/injection, schedule: Q01DX005 (ip), vehicle: other) 87 % of control.

Consider `CCCCCC(=O)C(C)CC` (centres undefined), for which the T/C under setting [1] is 96 % of control, the T/C under setting [2] is 104 % of control and the T/C under setting [6] is 94 % of control.

On to `N#C[Se]CC[Se]C#N`, for which the T/C by setting is: (endpoint: mean survival time, dose: 6.25 mg/kg/injection, schedule: Q01DX001 (ip), vehicle: saline with Tween-80) 94 % of control; (endpoint: mean survival time, dose: 12.5 mg/kg/injection, schedule: Q01DX001 (ip), vehicle: saline with Tween-80) 98 % of control; (endpoint: mean survival time, dose: 25.0 mg/kg/injection, schedule: Q01DX001 (ip), vehicle: saline with Tween-80) 103 % of control.

For the compound `Nc1ccc(CNC(=O)Nc2ccc(S(=O)(=O)F)cc2)cc1`, the T/C reads like this: (endpoint: mean survival time, dose: 25.0 mg/kg/injection, schedule: Q04DX003 (ip), vehicle: saline with Tween-80) 95 % of control; (endpoint: mean survival time, dose: 50.0 mg/kg/injection, schedule: Q04DX003 (ip), vehicle: saline with Tween-80) 91 % of control; under setting [1], 110 % of control; under setting [2], 92 % of control; under setting [6], 92 % of control.

`COc1ccc(/C=C2/CCOC2=O)cc1`: the T/C reads like this: (endpoint: mean survival time, dose: 3.12 mg/kg/injection, schedule: Q01DX001 (ip), vehicle: Klucel (hydroxypropylcellulose) (HPC)) 104 % of control; (endpoint: mean survival time, dose: 3.12 mg/kg/injection, schedule: Q04DX002 (ip), vehicle: Klucel (hydroxypropylcellulose) (HPC)) 103 % of control; (endpoint: mean survival time, dose: 6.25 mg/kg/injection, schedule: Q01DX001 (ip), vehicle: Klucel (hydroxypropylcellulose) (HPC)) 102 % of control; (endpoint: mean survival time, dose: 6.25 mg/kg/injection, schedule: Q04DX002 (ip), vehicle: Klucel (hydroxypropylcellulose) (HPC)) 100 % of control; (endpoint: mean survival time, dose: 12.5 mg/kg/injection, schedule: Q01DX001 (ip), vehicle: Klucel (hydroxypropylcellulose) (HPC)) 116 % of control; (endpoint: mean survival time, dose: 12.5 mg/kg/injection, schedule: Q04DX002 (ip), vehicle: Klucel (hydroxypropylcellulose) (HPC)) 107 % of control.

Consider `COc1cc(NCCCCNC(C)C)c2ncccc2c1`, for which the T/C (endpoint: mean survival time, dose: 75.0 mg/kg/injection, schedule: Q01DX001 (ip), vehicle: saline) is 95 % of control.

With `NC(=O)C(F)(F)F`, the T/C is, setting by setting: (endpoint: mean survival time, dose: 100.0 mg/kg/injection, schedule: Q01DX009 (ip), vehicle: saline) 98 % of control; (endpoint: mean survival time, dose: 200.0 mg/kg/injection, schedule: Q01DX009 (ip), vehicle: saline) 98 % of control; (endpoint: mean survival time, dose: 400.0 mg/kg/injection, schedule: Q01DX009 (ip), vehicle: saline) 100 % of control.

Turning to `COC(=O)CCN(C(=O)c1ccccc1)c1ccccc1C(=O)OC`, the T/C is, setting by setting: (endpoint: mean survival time, dose: 75.0 mg/kg/injection, schedule: Q04DX003 (ip), vehicle: saline) 100 % of control; (endpoint: mean survival time, dose: 150.0 mg/kg/injection, schedule: Q04DX003 (ip), vehicle: saline) 94 % of control; (endpoint: mean survival time, dose: 300.0 mg/kg/injection, schedule: Q04DX003 (ip), vehicle: saline) 100 % of control.

In the case of `CN(C)N=Nc1ccc(S(=O)(=O)Nc2ncccn2)cc1`, the T/C by setting is: (endpoint: mean survival time, dose: 25.0 mg/kg/injection, schedule: Q01DX009 (ip), vehicle: saline with Tween-80) 120 % of control; (endpoint: mean survival time, dose: 50.0 mg/kg/injection, schedule: Q01DX009 (ip), vehicle: saline with Tween-80) 124 % of control; under setting [1], 113 % of control; under setting [6], 157 % of control.
